Measurements: US20230078764A1 (Yumanity Therapeutics, Inc., priority 2019, published 2023)

Experiments:
[1] = target: T1, human SCD1 (Homo sapiens, UniProt O00767); assay: Growth inhibition of yeast strain expressing human SCD1 as sole desaturase (OLE1 deleted), OD600 readout; type: cell-based; details: yeast strain expressing human SCD1 as sole desaturase; growth (OD600) after 40 h at 30° C.; read-out: SCD1 IC50
T1 construct: expressed in transfected cells; host or cells: yeast strain with OLE1 deleted, plasmid-borne human SCD1 (selected in SD-Ura)
T1 sequence (O00767 1-359): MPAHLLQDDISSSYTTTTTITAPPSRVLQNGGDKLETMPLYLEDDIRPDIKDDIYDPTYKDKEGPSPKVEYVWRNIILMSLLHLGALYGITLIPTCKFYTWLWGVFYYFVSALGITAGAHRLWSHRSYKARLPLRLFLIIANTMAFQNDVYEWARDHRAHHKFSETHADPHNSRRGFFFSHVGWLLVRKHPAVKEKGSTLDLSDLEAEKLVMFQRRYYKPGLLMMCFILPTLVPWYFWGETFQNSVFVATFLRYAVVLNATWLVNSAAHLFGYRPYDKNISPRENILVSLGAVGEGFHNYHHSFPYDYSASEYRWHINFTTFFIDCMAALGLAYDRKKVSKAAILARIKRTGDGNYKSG

[2] = target: T2, human SCD5 (Homo sapiens, UniProt Q86SK9); assay: Growth inhibition of yeast strain expressing human SCD5 as sole desaturase (OLE1 deleted), OD600 readout; type: cell-based; details: yeast strain expressing human SCD5 as sole desaturase; growth (OD600) after 40 h at 30° C.; read-out: SCD5 IC50
T2 construct: expressed in transfected cells; host or cells: yeast strain with OLE1 deleted, plasmid-borne human SCD5 (selected in SD-Ura)
T2 sequence (Q86SK9 1-330): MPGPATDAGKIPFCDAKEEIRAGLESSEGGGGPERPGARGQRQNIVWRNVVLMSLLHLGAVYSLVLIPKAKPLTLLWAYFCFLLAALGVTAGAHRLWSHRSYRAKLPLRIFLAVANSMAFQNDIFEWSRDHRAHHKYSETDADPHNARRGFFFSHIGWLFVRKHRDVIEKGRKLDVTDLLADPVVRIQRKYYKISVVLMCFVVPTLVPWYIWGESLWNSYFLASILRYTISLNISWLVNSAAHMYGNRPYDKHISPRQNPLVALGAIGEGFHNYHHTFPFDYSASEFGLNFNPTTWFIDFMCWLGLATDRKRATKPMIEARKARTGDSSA

Structure (SMILES) | IC50 [1] [nM] | IC50 [2] [nM]
Cn1cc(NC(=O)c2ccc(COc3ccc(F)c(Cl)c3)cn2)ccc1=O [Compound 488] | 5800 | 109
CCn1nc(C(=O)Nc2ccc(Cc3cccc(Cl)c3)cn2)cc1O [Compound 489] | > 45000 | 544
O=C(Nc1ccc(Cc2cccc(F)c2)cn1)c1ncc(Br)cn1 [Compound 490] | > 45000 | 2200
CC(C)(C#N)c1ccc(C(=O)Nc2ccc(Cc3cccc(Cl)c3)cn2)cn1 [Compound 491] | 25000 | 6500
N#Cc1ccc(C(=O)Nc2ccc(COc3cccc(Cl)c3)cn2)cn1 [Compound 492] | > 45000 | 5800
N#Cc1ccc(C(=O)Nc2ccc(Cc3cc(F)cc(F)c3)cn2)nc1 [Compound 493] | 32000 | 43
O=C(Nc1ccc(Cc2cccc(Cl)c2)cn1)c1cnc(CO)nc1 [Compound 494] | 10 | 10
Cn1nc(NC(=O)c2ccc(Cc3ccc(F)cc3)cn2)ccc1=O [Compound 495] | 560 | 15
Cn1cc(NC(=O)c2ccc(Cc3ccc(F)cc3)cn2)ccc1=O [Compound 496] | 222 | 10
O=C(Nc1ccc(Cc2cccc(F)c2)cn1)c1cc(CO)ccn1 [Compound 497] | 10 | 10
N#Cc1ccc(C(=O)Nc2ccc(CNc3cccc(Cl)c3)cn2)nc1 [Compound 498] | 2700 | 5200
C=C(c1ccc(C(=O)Nc2ccc(Cc3cccc(Cl)c3)cn2)cn1)C(F)(F)F [Compound 499] | 10000 | 820
N#Cc1cnc(C(=O)Nc2ccc(Cc3cccc(F)c3)cn2)nc1 [Compound 500] | > 45000 | 10
C#CCn1nc(C(=O)Nc2ccc(Cc3cccc(Cl)c3)cn2)ccc1=O [Compound 501] | 10 | 10
CC(=O)c1ccc(C(=O)Nc2ccc(Cc3cccc(Cl)c3)cn2)nc1 [Compound 502] | > 45000 | 10
O=C(Nc1ccc(Cc2ccc(F)c(F)c2)cn1)c1cncc(CO)c1 [Compound 503] | 12 | 10
O=C(Nc1ccc(Cc2cccc(F)c2)cn1)c1ncc(F)cn1 [Compound 504] | 2800 | 260
O=C(Nc1ccc(Cc2cccc(F)c2)cn1)c1ccnc(C2CC2)n1 [Compound 506] | 1500 | 14
CC(=O)c1ccc(C(=O)Nc2ccc(Cc3ccc(F)c(F)c3)cn2)nc1 [Compound 507] | 980 | 1200
Cn1c(C(=O)Nc2ccc(Cc3ccc(F)c(F)c3)cn2)coc1=O [Compound 508] | 2600 | 450
Cn1c(C(=O)Nc2ccc(Cc3cc(F)cc(F)c3)cn2)coc1=O [Compound 509] | 430 | 120
CC(O)c1ccc(C(=O)Nc2ccc(Cc3cccc(Cl)c3)cn2)nc1 (stereo not shown) [Compound 510] | 100 | 77
CC(O)c1ccc(C(=O)Nc2ccc(Cc3ccc(F)c(F)c3)cn2)nc1 (stereo not shown) [Compound 511] | 143 | 190
CC(O)c1ccc(C(=O)Nc2ccc(Cc3cccc(Cl)c3)cn2)nn1 (stereo not shown) [Compound 512] | 49 | 60
CC(O)c1ccc(C(=O)Nc2ccc(Cc3cc(F)cc(F)c3)cn2)cn1 (stereo not shown) [Compound 513] | 770 | 170
CC(O)c1ccc(C(=O)Nc2ccc(Cc3ccc(F)c(F)c3)cn2)cn1 (stereo not shown) [Compound 514] | 2600 | 320
